According to US9426991B2, “Synergistic weed control from applications of aminocyclopyrachlor and picloram” (Dow AgroSciences LLC, priority 2012, dated 2016):

Tested on: broomweed (Sida acuta, SIDAC)
Assay: Field trial, post-emergence foliar application, weed control rating 0-100%
Assay type: in vivo
Settings: for Picloram-Potassium Mean % weed control: 180 g ae/ha alone; for Aminocyclopyrachlor Mean % weed control: 150 g ae/ha alone
From the text: The (a) aminocyclopyrachloror an agriculturally acceptable salt or ester thereof is mixed with or applied in combination with (b) picloram or an agriculturally acceptable salt or ester thereof in an amount sufficient to induce a synergistic herbicidal effect. […] As described in the Herbicide Handbook of the Weed Science Society of America, Ninth Edition, 2007, p. 429, “‘synergism’ [is] an interaction of two or more factors such that the effect when combined is greater than the predicted effect based on the response to each factor applied separately.” Synergistic in the herbicide context can mean that the use of (a) and (b) as defined above results in an increased weed control effect compared to the weed control effects that are possible with the use of (a) or (b) alone. In some embodiments, the damage or injury to the undesired vegetation caused by the compositions and methods disclosed herein is evaluated using a scale from 0% to 100%, when compared with the untreated control vegetation, wherein 0% indicates no damage to the undesired vegetation and 100% indicates complete destruction of the undesired vegetation. […] 22 (1967)
Field trials were conducted with applications made to established grassland with naturally occurring weed populations. The target plants were treated with postemergence foliar applications when they were at the beginning of the flowering stage and 30 centimeters (11.8 inches) tall. All treatments were applied using a randomized complete block trial design, with four replications per treatment.
Treatments consisted of aminocyclopyrachlor in acid form and picloram-potassium, each in water and applied alone or in combination. Spray solutions were prepared using an appropriate amount of dilution to form a 2.0-liter (L) aqueous spray solution with active ingredients in single and two-way combinations. Formulated compounds were applied to the plant material with a backpack sprayer equipped with 8003 nozzles calibrated to deliver 400 liters per hectare (L/ha) at a spray height of 18-20 in (45-51 cm) above average plant canopy.
The treated plant was broomweed (Sida acuta, SIDAC). The treated plots and control plots were rated blind at various intervals after application. Ratings were based on a scale of 0-100%, as discussed above, wherein 0% indicates no damage to the undesired vegetation and 100% indicates complete destruction of the undesired vegetation
Colby's equation was used to determine the herbicidal effects expected from the mixtures, as described above. The results were measured at 59 days, 75 days, and 88 days after the first application of the compositions. […] The herbicide tank mix combinations tested, application rates and ratios employed, plant species tested, and results are given below.

Row | SMILES | Picloram-Potassium Mean % weed control (59 days after application) | Picloram-Potassium Mean % weed control (75 days after application) | Picloram-Potassium Mean % weed control (88 days after application) | Aminocyclopyrachlor Mean % weed control (59 days after application) | Aminocyclopyrachlor Mean % weed control (75 days after application) | Aminocyclopyrachlor Mean % weed control (88 days after application)
1 | Nc1c(Cl)c(Cl)nc(C(=O)O)c1Cl [Picloram-Potassium, 4-amino-3,5,6-trichloro-2-pyridinecarboxylic acid] | 6.3% | 3.8% | 5.5% | – | – | –
2 | Nc1nc(C2CC2)nc(C(=O)O)c1Cl [Aminocyclopyrachlor, 6-amino-5-chloro-2-cyclopropylpyrimidine-4-carboxylic acid] | – | – | – | 42.5% | 36.3% | 41.3%
